Data as given in patent publication US20120141432A1, “USE OF CATALYTIC ANTIOXIDANT TO PRESERVE STEM CELL PHENOTYPE AND CONTROL CELL DIFFERENTIATION” (University of Pittsburgh- Of the Commonwealth System of …, priority 2010, published 2012).
“Also recorded” adds a separate entry of the source.

Key:
Type in all cases: cell-based
human skMSC [1] = assay: BrdU pulse detection of nondividing cells; conditions: 3 days exposure, BrdU pulse 36 hours, P=0.01
Method: Nondividing cells were also detected within the human muscle cell population in the context of GF-dose-dependent studies. […] The cells were pulsed with BrdU for 36 hours (division time=19±4 hrs) immunostaining was performed to detect labeled and unlabeled cells.

human skMSC [2] = assay: Growth factor dose response of human skMSC by time-lapsed imaging; conditions: for number of muscle stem cells: after 3 days in 100 ng/mL, vs lower doses and unstimulated controls; for response of human skMSC to growth factor: time-lapsed imaging
[3] = test system: human umbilical cord mesenchymal stem cells; assay: Osteogenic differentiation of umbilical cord mesenchymal stem cells (ALP staining); conditions: 34 μM, BMP4 0, 0.1 or 10 ng/mL, vs control with no antioxidant, FIG. 3
Method: The cells were contacted with the catalytic antioxidant at a concentration of 34 μM and bone morphogenic protein (BMP4) at concentrations of 0, 0.1, or 10 ng/mL.
Umbilical cord mesenchymal stem cells (UC-MSCs) were isolated and cultured. Cells were plated in the presence and absence of catalytic antioxidant. Live cell time-lapsed imaging was used to examine proliferation and apoptosis; images were analyzed using custom software obtained from Kairos Instruments. Osteogenic differentiation was stimulated using previously described methods; Alkaline Phosphatase (ALP) staining was used to determine stem cell differentiation (see Schugar et al., J Biomed Biotechnol 2009, 789526 (2009)). Cell phenotype was examined by flow cytometry (Schugar et al., J Biomed Biotechnol 2009, 789526 (2009)). Levels of intracellular reactive oxygen species were examined using dihydroxyrhodamine 123.

muscle stem cells [4] = assay: Myogenic differentiation of muscle stem cells (% of nuclei within myosin positive myotubes)
Method: (§1) FIGS. 2A and 2B are a set of bar graphs showing the effect of the catalytic antioxidant FBC-007 on the differentiation of muscle stem cells. The effect of FBC-007 at a concentration of 34 μM was measured on the myogenic differentiation of muscle stem cells. Differentiation was determined as the % of nuclei located within myosin positive myotubes and multinucleated myotubes.
In vitro Myogenic Differentiation: Cell populations from 3 different time points (<5 PDs, midpoint PDs, and maximal expansion) are evaluated. Briefly cells are plated at high density of 2000 cells/cm^2 in a low serum medium. After 3-4 days in culture, the media is changed to low serum or 2% serum medium. After day 7, immunocytochemical staining is performed to reveal fast myosin heavy chain (MyHC) expression. Methanol-fixed cultures are blocked with 5% HS and incubated with monoclonal mouse anti-MyHC (Sigma, 1:250, Sigma), biotinylated IgG (1:250, Vector), and streptavidin-Cy3 (1:500). […] In vitro differentiation efficiency is calculated as the ratio of myogenic nuclei to total nuclei.

stem cells = assay: Rescue from hydrogen peroxide-induced cell death
Excerpt: In other words, contacting stem cells with catalytic antioxidants allows the stem cells to proliferate (e.g. increase their numbers) without differentiating and losing the characteristics of stem cells, such as the phenotypic characteristics that distinguish stem cells from other cells. […] Thus, as disclosed herein contacting stem cells with catalytic antioxidants permits in vitro expansion of stem cells while delaying or inhibiting the differentiation of the stem cells, as well as protecting the stem cells from oxidative stress induced cell death.

muscle stem cells [5] = assay: Division time, cell growth and proliferation of muscle stem cells
Method: as §1
In Vitro Live Cell Imaging (LCI) to study Quiescent Nondividing cells. In vitro LCI is used to measure the fraction or proportion which is quiescent and nondividing after cytokine stimulation. The LCI system is unique in providing time-lapse images to characterize the cell populations. Using CytoTracker, DataCollector, and informatics tools, the growth rates of the populations are determined as described previously (Deasy et al., Stem Cells 20, 50-60 (2002)). In this way subpopulations or individual cells can be quantified. The combined the cell growth counts and the data of cell division time is used to calculate the size of the non-dividing fraction via a non-exponential Sherley equation (Sherley et al., Cell Prolif. 28, 137-44 (1995)).

muscle stem cells [6] = assay: Growth rate of muscle cells after CFSE labeling; conditions: 0 μM, 1 μM or 5 μM CFSE, FIG. 7B
Method: Cells were stained at 1.0 μM, and then analyzed at 0, 2, and 5 days. Note that the low fluorescence intensity approaches that of unstained cells by day 5. FIG. 7D is a plot of sample lineage trees showing the presence of dividing and non-dividing cells. FIG. 7E is a set of plots showing that 24 hours after injection into mdx mice, CFSE-labeled cells are detectable.
Both time-lapsed imaging and FACS sorting were applied to the quiescent population using used cytoplasmic tracking dyes, used 5-6-carboxyfluorescein diacetate, succinimdyl ester, CFSE, and a similar molecule, CMFDA. Once cell permeable CFDA-SE is taken up by cells, intracellular esterases in the cytoplasm cleave acetate groups and convert CFDA to fluorescent CFSE. It was first confirmed that CFSE is impermeable; it was not taken in by unlabeled neighboring cells when CFSE-positive cells die (FIG. 7A). An approach was developed to use CFSE as an effective method for labeling of muscle cells.

muscle stem cells [7] = assay: ROS in muscle stem cells grown with FGF-2; conditions: cells grown with FGF-2 vs absence of FGF-2, FIG. 5C
Excerpt: FIGS. 5A-5D are bar graphs, a plot and an electronic image showing that oxidative stress decreases cell viability (FIG. 5A) and myogenic differentiation capacity (FIG. 5B). […] FIG. 5D is an electronic image of muscle cells showing that myosin (staining) declines as ROS increases.

[8] = stem cell cultures, muscle stem cell and mesenchymal stem cells

IGF-1: Insulin-like growth factor 1
nondividing cells (BrdU [−]) (human skMSC [1]): significantly fewer nondividing cells | number of muscle stem cells (human skMSC [2]): significantly more muscle stem cells | response of human skMSC to growth factor (human skMSC [2]): dose-dependent response

CC[n+]1ccccc1-c1c2nc(c(-c3cccc[n+]3CC)c3ccc([n-]3)c(-c3cccc[n+]3CC)c3nc(c(-c4cccc[n+]4CC)c4ccc1[n-]4)C=C3)C=C2.[Mn+3] [FBC-007, Mn(III)tetrakis(N-ethylpyridinium-2-yl)porphyrin]
osteogenic differentiation [3]: reduced osteogenic differentiation | myogenic differentiation (% of nuclei located within myosin positive myotubes and multinucleated myotubes) (muscle stem cells [4]; FBC-007 34 μM vs controls without antioxidant, FIG. 2A): reduced levels of differentiation relative to controls | uninduced myogenic differentiation (muscle stem cells [4]; absence of growth factor (GF) stimulation, FIG. 6C): prevents uninduced myogenic differentiation | myogenic differentiation in stem cell cultures (muscle stem cells [4]; [8]): inhibits the myogenic differentiation | hydrogen peroxide-induced cell death (stem cells): can rescue the stem cells | division time of the muscle stem cells (muscle stem cells [5]; FBC-007 34 μM, FIG. 2B): does not show a statistically significant change | cell growth (muscle stem cells [5]; FIGS. 6A and 6B): did not affect cell growth; also recorded: does not affect cell growth | proliferation of the stem cells (muscle stem cells [5]; [8]): without affecting the proliferation

carboxyfluorescein diacetate succinimidyl ester [CFSE]
growth rates after CFSE treatment (muscle stem cells [6]): does not affect growth rates

FGF-2: FGF-2 (basic fibroblast growth factor, bFGF)
number of muscle stem cells (human skMSC [2]): significantly more muscle stem cells | response of human skMSC to growth factor (human skMSC [2]): dose-dependent response | reactive oxygen species (ROS) (muscle stem cells [7]): increase in some muscle stem cells
